Results: patent publication US7265120B2, “Pyrazine derivatives and pharmaceutical use thereof” (Astellas Pharma Inc., priority 2004, dated 2007)

What was measured:
[1] = molecular target: T1, human A1 receptor (Homo sapiens, UniProt P30542); experiment: Adenosine antagonistic activity, radioligand binding ([3H]DPCPX); details: [3H]DPCPX 4.5 nM
T1 sequence (P30542 1-326): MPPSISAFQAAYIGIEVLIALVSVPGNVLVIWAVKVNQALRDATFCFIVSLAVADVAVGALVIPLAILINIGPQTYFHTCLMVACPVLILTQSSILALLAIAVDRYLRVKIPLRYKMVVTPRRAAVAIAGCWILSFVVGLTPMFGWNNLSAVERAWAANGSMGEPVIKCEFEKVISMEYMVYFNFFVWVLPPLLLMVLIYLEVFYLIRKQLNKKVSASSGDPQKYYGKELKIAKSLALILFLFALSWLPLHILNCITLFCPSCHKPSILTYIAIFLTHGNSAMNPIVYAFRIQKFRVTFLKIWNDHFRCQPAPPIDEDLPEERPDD
Protocol: (§1) Test 1: Adenosine Antagonistic Activity
(§2) The adenosine antagonistic activity [Ki (nM)] of the test compound was examined by radioligand binding techniques using 8-cyclopentyl-1,3-dipropylxanthine, [dipropyl-2,3-^3H(N)] ([^3H]DPCPX, 4.5 nM) for human A1 receptor and [^3H]CGS 21680 (20 nM) for human A2a receptor.

[2] = molecular target: human A2a receptor (Homo sapiens, UniProt P29274); experiment: Adenosine antagonistic activity, radioligand binding ([3H]CGS 21680); details: [3H]CGS 21680 20 nM
Protocol: as §1, §2

[3] = system: ddY mice; experiment: Anticatalepsy activity in mouse (haloperidol-induced catalepsy, bar test); assay type: in vivo; details: 3.2 mg/kg orally, ddY mice n=7; haloperidol 0.32 mg/kg i.p. 30 min after compound; measured 30 min after injection, up to 30 sec
Protocol: Test 2: Anticatalepsy Activity in Mouse [I] Test Method
The test compound (3.2 mg/kg) was administered orally with ddY mice (n=7). Then, haloperidol (0.32 mg/kg) was injected intraperitoneally 30 min. after the administration of the compound. Thirty min. after the injection, the cataleptic responses of mice were measured. The forelimbs of each mouse were placed on a 3 cm high, 3 mm wide horizontal bar, and the duration of cataleptic posture was measured for up to 30 sec.

human A2a receptor, sequence (P29274 whole entry): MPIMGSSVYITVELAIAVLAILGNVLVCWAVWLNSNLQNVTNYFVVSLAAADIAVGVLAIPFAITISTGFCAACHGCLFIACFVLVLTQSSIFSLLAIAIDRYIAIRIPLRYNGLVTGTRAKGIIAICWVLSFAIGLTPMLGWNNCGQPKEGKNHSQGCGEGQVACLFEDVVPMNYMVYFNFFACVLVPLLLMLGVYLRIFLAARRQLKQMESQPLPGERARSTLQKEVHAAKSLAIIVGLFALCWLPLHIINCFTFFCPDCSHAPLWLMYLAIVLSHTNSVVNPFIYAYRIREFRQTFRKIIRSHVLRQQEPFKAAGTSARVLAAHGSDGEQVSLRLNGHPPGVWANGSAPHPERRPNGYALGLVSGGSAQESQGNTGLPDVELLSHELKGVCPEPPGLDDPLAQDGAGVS

| melting point [°C] | Ki [1] [nM] | Ki [2] [nM] | Compound | Manifestation rate of Catalepsy (number of mouse) [3] |
| --- | --- | --- | --- | --- |
| 220 to 224 | 16 | 6.79 | CC(C)n1nc(-c2nc(Br)c(N=S(C)C)nc2-c2ccccc2)ccc1=O [Example 66, 6-{6-bromo-5-[(dimethyl-lambda˜4˜-sulfanylidene)amino]-3-phenyl-2-pyrazinyl}-2-isopropyl-3(2H)-pyridazinone] | 1/7 |
| > 250 | 0.72 | 0.25 | CC(C)n1nc(-c2nc(C#Cc3cncn3C)c(N)nc2-c2ccccc2)ccc1=O [Example 75, 6-{5-amino-6-[(1-methyl-1H-imidazol-5-yl)ethynyl]-3-phenyl-2-pyrazinyl}-2-isopropyl-3(2H)-pyridazinone] | 0/7 |
| 158 to 159.5 | 13.2 | 1.49 | Cn1nc(-c2nc(OCc3ccco3)c(N)nc2-c2ccccc2)ccc1=O [Example 184, 6-[5-amino-6-(2-furylmethoxy)-3-phenyl-2-pyrazinyl]-2-methyl-3(2H)-pyridazinone] | 2/7 |
| 206.5 to 209 | 6.66 | 2.6 | CC(C)n1nc(-c2nc(NCc3ccco3)c(N)nc2-c2ccccc2)ccc1=O [Example 134, 6-{5-amino-6-[(2-furylmethyl)amino]-3-phenyl-2-pyrazinyl}-2-isopropyl-3(2H)-pyridazinone] | 1/7 |
